Source: paper PMC6291622, “Vitamin E Increases Antimicrobial Sensitivity by Inhibiting Bacterial Lipocalin Antibiotic Binding” (mSphere, 2018)

Target: T1, BcnA (Burkholderia cenocepacia, UniProt B4EE32)
T1 construct: gene BCAL3311; purified BcnA expressed from pET28a-bcnA in E. coli BL21
T1 sequence (B4EE32 27-186): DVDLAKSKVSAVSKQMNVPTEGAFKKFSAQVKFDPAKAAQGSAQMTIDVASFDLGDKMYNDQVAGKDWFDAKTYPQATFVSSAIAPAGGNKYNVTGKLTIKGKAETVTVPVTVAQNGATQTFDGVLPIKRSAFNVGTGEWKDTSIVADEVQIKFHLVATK
Experiment: isothermal titration calorimetry (ITC), […]°C, PBS pH […], N = […]
Format: binding

## CCn1cc(C(=O)O)c(=O)c2cc(F)c(N3CCNCC3)cc21 [norfloxacin]
  Kd: 4.9 mM
